The text below walks through data of patent US8697715B2, “Serine/threonine kinase inhibitors” (Array BioPharma Inc., priority 2012, dated 2014).

This assay relates to PMA-stimulated P90RSK(Ser380) phosphorylation in HepG2 cells. The assay can be described thus: Cellular P90RSK(Ser380) Phosphorylation Assay. Conditions: Homo sapiens, read-out: Biological Example 2 IC50 (nM), 1.5 hours compound incubation, PMA 100 ng/mL 30 minutes, normalized to GAPDH, single assay or mean of multiple assays. It counts as cell-based. The method, then:
Inhibition of PMA-stimulated P90RSK(Ser380) phosphorylation was determined by the following in vitro cellular mechanistic assay, which comprises incubating cells with a compound for 1.5 hours and quantifying fluorescent pP90RSK(Ser380) signal on fixed cells and normalizing to GAPDH signal.
HepG2 cells were obtained from ATCC and grown in DMEM supplemented with 10% fetal bovine serum. Cells were plated in 96-well plates at 35,000 cells/well and allowed to attach overnight at 37° C./5% CO2. Diluted compounds were then added at a final concentration of 0.5% DMSO. After 1.5 hours compound incubation, cells were stimulated with the addition of phorbol 12-myristate 13-acetate (“PMA”) at a final concentration of 100 ng/mL; the PMA stimulation was a 30-minute incubation at 37° C./5% CO2. After the 30-minute PMA stimulation, cells were washed with phosphate buffered saline (“PBS”) and fixed in 3.7% formaldehyde in PBS at room temperature for 15-20 minutes. This was followed by another wash in PBS and then permeabilization in 100% MeOH at room temperature for 10-15 minutes. Following the permeabilization incubation, cells were washed in PBS/0.05% Tween-20, followed by a block in Odyssey blocking buffer (LI-COR Biosciences) for at least 1 hour. […] Both secondary antibodies were used at a 1:1000 dilution. Cells were then washed and analyzed for fluorescence at both wavelengths using the Odyssey Infrared Imaging System (LI-COR Biosciences). Phosphorylated P90RSK(Ser380) signal was normalized to GAPDH signal.
On to `Cc1nc[nH]c1Nc1nccc(-c2ccn([C@H](CO)c3ccc(Cl)c(F)c3)c(=O)c2)n1` [Example 185, (S)-1-(1-(4-chloro-3-fluorophenyl)-2-hydroxyethyl)-4-(2-((4-methyl-1H-imidazol-5-yl)amino)pyrimidin-4-yl)pyridin-2(1H)-one], for which the IC50 is 19.6 nM.

With `C[C@@H](CO)Nc1nccc(-c2ccn(C(CO)c3ccc(F)c(Cl)c3)c(=O)c2)n1` (stereo partly drawn) [Example 60, 1-(1-(3-chloro-4-fluorophenyl)-2-hydroxyethyl)-4-(2-(((S)-1-hydroxypropan-2-yl)amino)pyrimidin-4-yl)pyridin-2(1H)-one], the IC50 was 1610 nM.

As to `O=c1cc(-c2ccnc(NC3CCOCC3)n2)ccn1[C@H](CO)c1ccc(Cl)c(F)c1` [Example 1, (S)-1-(1-(4-chloro-3-fluorophenyl)-2-hydroxyethyl)-4-(2-((tetrahydro-2H-pyran-4-yl)amino)pyrimidin-4-yl)pyridin-2(1H)-one], the IC50 is 31.9 nM.
